Patent publication US7863040B2, “Ready-to-use whole blood collection vessel” (Roche Diagnostics Operations, Inc., priority 2006, dated 2011)

Experiments:
[1] = in vivo; cited from earlier work
erythrocytes [2] = experiment: Visual evaluation of hemolysis (time until a clear solution is observed); type: cell-based
Protocol: Whether the conditions for differential hemolysis are appropriate can be easily and preferably determined by using the following standardized procedure. A whole blood sample with a hematocrit of 40 is diluted 1:10 and then mixed 1:1 with the candidate hemolysis reagent. The efficacy of a reagent for bringing about differential hemolysis is seen visually. Upon lysis of the erythrocytes the mixture becomes clear. If precipitation of sample constituents occurs the sample becomes turbid or viscous or both.
As indicated above, the conditions used in a method of differential hemolysis according to the present invention can easily be assessed visually. If a whole blood sample is incubated with an appropriate candidate reagent for differential hemolysis the minimal concentration required to hemolyze red blood cells can be recognized as the concentration rendering the turbid blood sample transparent or clear. The highest possible concentration is the one still leading to a transparent and non-viscous sample.
(§1) Solution A: Fresh EDTA-stabilized whole blood is diluted with 0.15 molar sodium chloride solution in the ratio 1:10 (50 μL EDTA-blood plus 450 μL sodium chloride solution).
In the case of the addition of a second anion, e.g., iodine (1-Butyl-3-methylpyridiniumchloride/KJ) the stated salt is added in an equimolar amount.
Hemolysate is prepared by mixing solution A and B in equal volumes, e.g., 500 μL solution A plus 500 μL solution B.
After mixing the hemolysate is inspected visually for turbidometry and clearness immediately after mixing, after 1 minute, 2, 5, 6, 7, 20 and 40 minutes. The time until a clear solution is observed is recorded.

erythrocytes [3] = experiment: Microscopic evaluation of hemolysis, Trypane blue staining; type: cell-based; conditions: 1 in 10 diluted whole blood, reagent 25%
Protocol: The integrity of red blood cells can for example be easily assessed by appropriate life stains. In a preferred embodiment according to the present invention trypane blue is used in order to assess the integrity of a red blood cell membrane. […] The membrane integrity of a red blood cell is easily assessed under the microscope after staining a sample with trypane blue. The percentage of disrupted red blood cells is calculated by counting intact red blood cells before and after the treatment, by then dividing the first number by the latter number and by then multiplying this value by 100. Red blood cells that are solubilized are referred to as lyzed red blood cells or as lyzed erythrocytes.
as §1
Solution B: A solution of the hemolysis reagent in 0.15 molar sodium chloride is prepared where the concentration of the hemolysis reagent is twice as high as the desired final concentration in the hemolysate, e.g., to get a final concentration of 25% of 1-Butyl-4-methylpyridinium tetrafluoroborate a solution of 50% ([…] plus 50 mL 0.15 molar sodium chloride in water) is prepared. […]

[4] = system: EDTA-anticoagulated whole blood; experiment: Processing of EDTA-anticoagulated whole blood in a tube with reagent for differential hemolysis (time to optically clear lysate); type: cell-based
Protocol: This reagent for differential hemolysis thus has a concentration of about 25% BMPBF4. […] 250 microliter of EDTA-anticoagulated whole blood is pipetted into a vial containing 5 milliliter of this lysis reagent. For hemolysis the content of the tube is gently mixed by shaking. An optically clear lysate is obtained within five minutes. The lysate is stored at 4° C. Stability of the lysate is inspected after 1, 4 and 7 days by visual inspection. […] This reagent for differential hemolysis thus has a concentration of about 2% Me-octPCl. 250 microliter of EDTA-anticoagulated whole blood is pipetted into a vial containing 5 milliliter of this lysis reagent. For hemolysis the content of the tube is gently mixed by shaking. An optically clear lysate is obtained within five minutes. The lysate is stored at 4° C. Stability of the lysate is inspected after 1, 4 and 7 days by visual inspection. […] This reagent for differential hemolysis has a concentration of about 15% Me-octPCl. […] For hemolysis the content of the tube is gently mixed by shaking. An optically clear lysate is obtained within five minutes. The lysate is stored at 4° C. Stability of the lysate is inspected after 1, and 2 days by visual inspection. […] This reagent for differential hemolysis has a concentration of about 10% COMPCl. […]

erythrocytes [5] = experiment: Microscopic evaluation of hemolysis, May-Grünwald staining; type: cell-based
Protocol: Solution A: Fresh EDTA-stabilized whole blood is diluted with 0.15 molar sodium chloride solution in the ratio 1:10 (50 μL EDTA-blood plus 450 μL sodium chloride solution). Solution B: […] Hemolysate is prepared by mixing solution A and B in equal volumes, e.g., 20 μL solution A plus 20 μL solution B After mixing of the hemolysate a droplet is smeared on a microscope slide, air dried at room temperature and stained with May-Grünwald staining reagent (Merck Cat. No. 1.01424 May-Grünwald's Eosin Methylene Blue Solution). […] Microscopy is performed by oil immersion light microscopy (magnification ×630).

[6] = cited from earlier work
[7] = final concentration 25% (weight/volume), whole blood final dilution 1:20
[8] = final concentration 12.5% (weight/volume)

COc1c(C)c2c(c(O)c1C/C=C(\C)CCC(=O)OCCN1CCOCC1)C(=O)OC2 [MMF, mycophenolate mofetil]
therapeutic trough concentration [1]: 1000 to 3500 µg/L

CCCCCCCC[N+]1(C)CCCC1.[Cl-] [1-Methyl-1-octyl pyrrolidiniumchloride]
clear after (min.) (erythrocytes [2]; final concentration 2.5% (weight/volume)): turbid | clear after (min.) (erythrocytes [2]; [7]): immediately

CCCC[n+]1cccc(C)c1.[Cl-] [1-Butyl-3-methyl pyridiniumchloride, 1-Butyl-3-methylpyridiniumchloride]
clear after (min.) (erythrocytes [2]; [7]): turbid

CCCCCCCC[n+]1ccccc1.[Cl-] [N-Octylpyridiniumchloride]
clear after (erythrocytes [2]; [7]): 2 min

CCCC[n+]1ccc(C)cc1.F[B-](F)(F)F [1-Butyl-4-methylpyridinium tetrafluoroborate]
Light microscopy of hemolyzed whole blood, Trypane blue staining (erythrocytes [3]; 2.5 min incubation time): Only few residual erythrocytes are left | Light microscopy of hemolyzed whole blood, Trypane blue staining (erythrocytes [3]; 15 min incubation time): No erythrocytes or membranes are left | time until optically clear lysate is obtained ([4]; 250 microliter blood into 5 milliliter reagent, about 25% BMPBF4): five | clear after (min.) (erythrocytes [2]; final concentration 6% (weight/volume)): Turbid | clear after (erythrocytes [2]; [8]): 40 min | clear after (erythrocytes [2]; [7]): 20 min | Light microscopy of hemolyzed whole blood, May-Grünwald staining (erythrocytes [5]; 1 in 10 diluted whole blood, reagent 25%): No erythrocytes or membranes are left, nuclei are still intact

CO[C@H]1C[C@@H]2CC[C@@H](C)[C@@](O)(O2)C(=O)C(=O)N2CCCC[C@H]2C(=O)O[C@H]([C@H](C)C[C@@H]2CC[C@@H](O)[C@H](OC)C2)CC(=O)[C@H](C)/C=C(\C)[C@@H](O)[C@@H](OC)C(=O)[C@H](C)C[C@H](C)/C=C/C=C/C=C/1C [sirolimus, rapamycin]
therapeutic trough concentration [1]: 5 to 15 µg/L

O [water, reference compound]
Light microscopy of hemolyzed whole blood, May-Grünwald staining (erythrocytes [5]; 1 in 10 diluted whole blood hemolyzed with water): Erythrocyte membranes and nuclei are visible

C=CC[C@@H]1/C=C(\C)C[C@H](C)C[C@H](OC)[C@H]2O[C@@](O)(C(=O)C(=O)N3CCCC[C@H]3C(=O)O[C@H](/C(C)=C/[C@@H]3CC[C@@H](O)[C@H](OC)C3)[C@H](C)[C@@H](O)CC1=O)[C@H](C)C[C@@H]2OC [Tacrolimus, tacrolimus]
potency relative to cyclosporin in vitro [6]: up to 100 times | therapeutic trough concentration [1]: 5 to 20 µg/L

CCCCn1cc[n+](C)c1.F[B-](F)(F)F [1-Butyl-3-methyl-imidazolium tetrafluoroborate]
clear after (erythrocytes [2]; [7]): 20 min

CCCCCC[n+]1ccccc1.[Cl-] [1-Hexylpyridiniumchloride]
clear after (min.) (erythrocytes [2]; [8]): turbid | clear after (erythrocytes [2]; [7]): 7 min

CCCCCCCCOC[n+]1cccc(C(N)=O)c1.[Cl-] [3-Carbamoyl-1-octyloxymethyl pyridiniumchloride]
time until optically clear lysate is obtained ([4]; 50 microliter blood into 130 microliter reagent, about 10% COMPCl): five | clear after (min.) (erythrocytes [2]; final concentration 1.5% (weight/volume)): immediately | clear after (min.) (erythrocytes [2]; final concentration 6.25% (weight/volume)): immediately | clear after (min.) (erythrocytes [2]; [8]): immediately

CCCCCCCCOS(=O)(=O)[O-].CCCCn1cc[n+](C)c1 [l-Butyl-3-methyl-imidazoliumoctylsulfate, 1-Butyl-3-methyl-imidazoliumoctylsulfate]
clear after (min.) (erythrocytes [2]; [7]): immediately
